According to patent US11851411B2, “Herbicidal compounds” (SYNGENTA CROP PROTECTION AG, priority 2018, dated 2023):

What was measured:
Format in all cases: in vivo
[1] = test system: Amaranthus retoflexus (AMARE); assay: Glasshouse herbicide test, post-emergence; conditions: POST Application; 500 g/h; evaluated after 13 days
Method: (§1) Seeds of a variety of test species are shown in standard soil in pots (Lolium perenne (LOLPE), Amaranthus retoflexus (AMARE), Abutilon theophrasti (ABUTH), Setaria faberi (SETFA), Echinochloa crus-galli (ECHCG), Ipomoea hederacea (IPOHE)). After cultivation for one day (pre-emergence) or after 8 days cultivation (post-emergence) under controlled conditions in a glasshouse (at 24/16° C., day/night; 14 hours light; 65% humidity), the plants are sprayed with an aqueous spray solution derived from the formulation of the technical active ingredient in acetone/water (50:50) solution containing 0.5% Tween 20 (polyoxyethelyene sorbitan monolaurate, CAS RN 9005-64-5). Compounds are applied at 500 g/h. The test plants are then grown in a glasshouse under controlled conditions in a glasshouse (at 24/16° C., day/night; 14 hours light; 65% humidity) and watered twice daily. After 13 days for pre and post-emergence, the test is evaluated for the percentage damage caused to the plant. The biological activities are shown in the following table on a five point scale (5=80-100%; 4=60-79%; 3=40-59%; 2=20-39%; 1=0-19%).

[2] = test system: Abutilon theophrasti (ABUTH); assay: Glasshouse herbicide test, post-emergence; conditions: POST Application; 500 g/h; evaluated after 13 days
Method: as §1

[3] = test system: Ipomoea hederacea (IPOHE); assay: Glasshouse herbicide test, post-emergence; conditions: POST Application; 500 g/h; evaluated after 13 days
Method: as §1

[4] = test system: Echinochloa crus-galli (ECHCG); assay: Glasshouse herbicide test, post-emergence; conditions: POST Application; 500 g/h; evaluated after 13 days
Method: as §1

[5] = test system: Setaria faberi (SETFA); assay: Glasshouse herbicide test, post-emergence; conditions: POST Application; 500 g/h; evaluated after 13 days
Method: as §1

[6] = test system: Amaranthus retroflexus (AMARE); assay: Comparative experiment, post-emergence phytotoxicity; conditions: POST Application; Rate 125 g/ha
Method: (§2) A comparative experiment is conducted to show the advantage provided by the compounds of the present invention. Thus the biological performance of representative compounds 1.001, 1.043, 2.002 & 2.024 of the present invention are compared with Compound C1, which is an aniline compound of the type referred to in WO2012/028579. Results are given as (%) phytotoxicity observed.

[7] = test system: Setaria faberi (SETFA); assay: as above; conditions: POST Application; Rate 125 g/ha
Method: as §2

[8] = test system: Amaranthus retoflexus (AMARE); assay: Glasshouse herbicide test, pre-emergence; conditions: PRE Application; 500 g/h; evaluated after 13 days
Method: as §1

[9] = test system: Abutilon theophrasti (ABUTH); assay: Glasshouse herbicide test, pre-emergence; conditions: PRE Application; 500 g/h; evaluated after 13 days
Method: as §1

[10] = test system: Ipomoea hederacea (IPOHE); assay: Glasshouse herbicide test, pre-emergence; conditions: PRE Application; 500 g/h; evaluated after 13 days
Method: as §1

[11] = test system: Echinochloa crus-galli (ECHCG); assay: Glasshouse herbicide test, pre-emergence; conditions: PRE Application; 500 g/h; evaluated after 13 days
Method: as §1

[12] = test system: Setaria faberi (SETFA); assay: Glasshouse herbicide test, pre-emergence; conditions: PRE Application; 500 g/h; evaluated after 13 days
Method: as §1

Row | Structure (SMILES) | percentage damage caused to the plant, five point scale, AMARE [1] | percentage damage caused to the plant, five point scale, ABUTH [2] | percentage damage caused to the plant, five point scale, IPOHE [3] | percentage damage caused to the plant, five point scale, ECHCG [4] | percentage damage caused to the plant, five point scale, SETFA [5] | (%) phytotoxicity observed, AMARE [6] | (%) phytotoxicity observed, SETFA [7] | percentage damage caused to the plant, five point scale, AMARE [8] | percentage damage caused to the plant, five point scale, ABUTH [9] | percentage damage caused to the plant, five point scale, IPOHE [10] | percentage damage caused to the plant, five point scale, ECHCG [11] | percentage damage caused to the plant, five point scale, SETFA [12]
1 | CON(C(C)=O)c1c(C(F)(F)F)ccc(C(=O)Nc2nnnn2C)c1Cl [Compound 1.001, 3-[acetyl(methoxy)amino]-2-chloro-N-(1-methyltetrazol-5-yl)-4-(trifluoromethyl)benzamide] | 5 (5=80-100%) | 5 (5=80-100%) | 5 (5=80-100%) | 5 (5=80-100%) | 5 (5=80-100%) | 90% | 90% | 5 (5=80-100%) | 5 (5=80-100%) | 5 (5=80-100%) | 5 (5=80-100%) | 5 (5=80-100%)
2 | CON(C)c1c(S(C)(=O)=O)ccc(C(=O)Nc2nnnn2C)c1Cl [Compound 1.043, 2-chloro-3-[methoxy(methyl)amino]-4-methylsulfonyl-N-(1-methyltetrazol-5-yl)benzamide] | 5 (5=80-100%) | 5 (5=80-100%) | 5 (5=80-100%) | 5 (5=80-100%) | 5 (5=80-100%) | 100% | 90% | 5 (5=80-100%) | 5 (5=80-100%) | 5 (5=80-100%) | 5 (5=80-100%) | 5 (5=80-100%)
3 | CCn1nnnc1NC(=O)c1ccc(S(C)(=O)=O)c(N(OC)C(C)=O)c1Cl [Compound 1.008] | 5 (5=80-100%) | 5 (5=80-100%) | 5 (5=80-100%) | 5 (5=80-100%) | 5 (5=80-100%) |  |  | 5 (5=80-100%) | 5 (5=80-100%) | 5 (5=80-100%) | 5 (5=80-100%) | 5 (5=80-100%)
4 | CCCn1nnnc1NC(=O)c1ccc(S(C)(=O)=O)c(N(C)OC)c1Cl [Compound 1.045] | 5 (5=80-100%) | 5 (5=80-100%) | 5 (5=80-100%) | 5 (5=80-100%) | 5 (5=80-100%) |  |  | 5 (5=80-100%) | 5 (5=80-100%) | 5 (5=80-100%) | 5 (5=80-100%) | 5 (5=80-100%)
5 | CCn1nnnc1NC(=O)c1ccc(S(C)(=O)=O)c(N(C)OC)c1Cl [Compound 1.044] | 5 (5=80-100%) | 5 (5=80-100%) | 5 (5=80-100%) | 5 (5=80-100%) | 5 (5=80-100%) |  |  | 5 (5=80-100%) | 5 (5=80-100%) | 5 (5=80-100%) | 5 (5=80-100%) | 5 (5=80-100%)
6 | CCS(=O)(=O)c1ccc(C(=O)Nc2nnnn2C)c(Cl)c1N(C)OC [Compound 1.062] | 5 (5=80-100%) | 5 (5=80-100%) | 5 (5=80-100%) | 5 (5=80-100%) | 5 (5=80-100%) |  |  | 5 (5=80-100%) | 5 (5=80-100%) | 5 (5=80-100%) | 5 (5=80-100%) | 5 (5=80-100%)
7 | CCCS(=O)(=O)c1ccc(C(=O)Nc2nnnn2C)c(Cl)c1N(C)OC [Compound 1.054] | 5 (5=80-100%) | 5 (5=80-100%) | 5 (5=80-100%) | 5 (5=80-100%) | 5 (5=80-100%) |  |  | 5 (5=80-100%) | 5 (5=80-100%) | 5 (5=80-100%) | 5 (5=80-100%) | 5 (5=80-100%)
8 | Cn1nnnc1NC(=O)c1ccc(C(F)(F)F)c(N)c1Cl [Compound C1, reference compound] |  |  |  |  |  | 10% | 20% |  |  |  |  | 
9 | CON(C(=O)OC(C)(C)C)c1c(C(F)(F)F)ccc(C(=O)Nc2nnnn2C)c1Cl [Compound 1.025] | 5 (5=80-100%) | 5 (5=80-100%) | 5 (5=80-100%) | 5 (5=80-100%) | 5 (5=80-100%) |  |  | 5 (5=80-100%) | 5 (5=80-100%) | 5 (5=80-100%) | 5 (5=80-100%) | 5 (5=80-100%)
